# Source: patent publication US5891620A, “Steroid sulfatase assay” (Imperial College of Science, Technology and Medicine, priority 1994, dated 1999)
# System: Oestrone sulphatase activity in human white blood cells
# Assay: Oestrone sulphatase activity in white blood cells of volunteers after an oral dose of inhibitor
# Assay type: in vivo
# Details: two healthy male volunteers; single oral dose 0.5 mg/Kg; white blood cells from blood samples taken for up to 28 days
# Experimental: Purified leukocytes (according to Tulchinsky JCEM 65, 1026, 1987) from 10 ml whole blood are suspended in 1 ml PBS-sucrose. 0.2 ml of this is used for EST assay as above (incubated for 2 hr at 37° C. in a final volume of 1 ml).
# After incubation, samples are extracted with 4 ml toluene. 2 ml of this is counted in 10 ml Scintillant.
# The assay of the present invention, as described above, was investigated using two healthy, male volunteers whom received an oral dose of a steroid sulphatase inhibitor (Oestrone-3-O-sulphamate, 0.5 mg/Kg). In this regard, white blood cells were prepared from blood samples obtained from the subjects for up to 28 days. […] The results from this study confirm that the measurement of Oestrone Sulphatase activity in white blood cells will therefore allow the extent and duration of sulphatase inhibition to be monitored in subjects receiving steroid sulphatase inhibitors therapeutically. More details and results of these studies are shown in the attached FIG. 30. […] In particular, the assay of the present invention allows one to measure oestrone sulphatase activity in human white blood cells to monitor the extent of oestrone sulphatase inhibition.
smiles,measurement,value
C[C@]12CC[C@@H]3c4ccc(OS(N)(=O)=O)cc4CC[C@H]3[C@@H]1CCC2=O [Oestrone-3-O-sulphamate],inhibition of Oestrone sulphatase activity in white blood cells,significant inhibition
